1 compound from ChEMBL document CHEMBL1156111, “Identification of the amino acid-AZT-phosphoramidase by affinity T7 phage display selection” (Bioorg Med Chem Lett, 2009) can be followed below.

For the assay, the target named is Adenosine 5'-monophosphoramidase HINT1 (Homo sapiens) (UniProt P49773). Nature of the assay: Ratio of kcat to km for human HINT1.
Adenosine 5'-monophosphoramidase HINT1 (Homo sapiens), sequence (P49773 whole entry): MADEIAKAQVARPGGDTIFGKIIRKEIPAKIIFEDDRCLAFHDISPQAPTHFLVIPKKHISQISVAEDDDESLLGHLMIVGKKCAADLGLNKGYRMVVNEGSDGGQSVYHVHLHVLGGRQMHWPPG

For `Cc1cn([C@H]2C[C@H](N=[N+]=[N-])[C@@H](COP(=O)(O)NCc3c[nH]c4ccccc34)O2)c(=O)[nH]c1=O`, the Ratio worked out at 25.
